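Where inhibition never reached the appropriate level, the endpoint shown equals the highest concentration tested. Otherwise, values were interpolated linearly from a five-concentration, 48-hour dose response in 96-well plates. GI50: concentration for 50% inhibition of growth.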 Calls of active or inactive are those of the source. Cut-off read from the data, not from the text of the source: active = GI50 up to about 1.1 µM and inactive = higher.
Assays:
Experiment in all cases: NCI-60 cell line screen, 48 h
Hs-578T = test system: Hs-578T
A498 = test system: A498
SW-620 = test system: SW-620
M14 = test system: M14
RXF 393 = test system: RXF 393
SK-MEL-2 = test system: SK-MEL-2
TK-10 = test system: TK-10
CCRF-CEM = test system: CCRF-CEM
K562 = test system: K562
KM12 = test system: KM12
PC-3 = test system: PC-3
SK-OV-3 = test system: SK-OV-3
NCI-H460 = test system: NCI-H460
RPMI-8226 = test system: RPMI-8226
SK-MEL-5 = test system: SK-MEL-5
DU-145 = test system: DU-145
MDA-MB-435 = test system: MDA-MB-435
SF-268 = test system: SF-268
MDA-N = test system: MDA-N

Measured: GI50

OCCN(CCO)CCn1cnc2c(NCc3ccccc3)ncnc21
inactive: Hs-578T > 100 µM | A498 > 100 µM | SW-620 > 100 µM | M14 > 100 µM | RXF 393 > 100 µM | SK-MEL-2 > 100 µM | TK-10 > 100 µM | CCRF-CEM > 100 µM | K562 > 100 µM | KM12 > 100 µM | PC-3 > 100 µM | SK-OV-3 > 100 µM | NCI-H460 > 100 µM | RPMI-8226 > 100 µM | SK-MEL-5 > 100 µM | DU-145 > 100 µM | MDA-MB-435 > 100 µM | SF-268 > 100 µM | MDA-N > 100 µM

CCOC(=O)c1cc2c([N+](=O)[O-])c(N)ccc2s1
inactive: Hs-578T > 100 µM | A498 > 100 µM | SW-620 > 100 µM | M14 > 100 µM | RXF 393 > 100 µM | SK-MEL-2 > 100 µM | TK-10 > 100 µM | CCRF-CEM > 100 µM | K562 > 100 µM | KM12 > 100 µM | PC-3 > 100 µM | SK-OV-3 > 100 µM | NCI-H460 > 100 µM | RPMI-8226 > 100 µM | SK-MEL-5 > 100 µM | DU-145 > 100 µM | MDA-MB-435 > 100 µM | SF-268 > 100 µM | MDA-N > 100 µM

COc1ccc(-c2cc(-c3ccco3)c(C#N)c(=S)n2C2OC(CO)C(O)C(O)C2O)cc1 (stereo unspecified)
inactive: Hs-578T > 100 µM | A498 > 100 µM | SW-620 > 100 µM | M14 52 µM | RXF 393 > 100 µM | SK-MEL-2 > 100 µM | TK-10 > 100 µM | CCRF-CEM > 100 µM | K562 > 100 µM | KM12 > 100 µM | PC-3 > 100 µM | SK-OV-3 1.57 µM | NCI-H460 > 100 µM | RPMI-8226 > 100 µM | SK-MEL-5 44.7 µM | DU-145 > 10 µM | MDA-MB-435 > 100 µM | SF-268 > 100 µM | MDA-N > 100 µM

CN(C)Cc1cc(/N=N/c2ccccc2)cc(CN(C)C)c1O
inactive: Hs-578T > 100 µM | A498 97.3 µM | SW-620 > 100 µM | M14 > 100 µM | RXF 393 44.7 µM | SK-MEL-2 64.4 µM | TK-10 > 100 µM | CCRF-CEM 32.3 µM | K562 97.5 µM | KM12 98.6 µM | PC-3 > 100 µM | SK-OV-3 > 100 µM | NCI-H460 47.1 µM | RPMI-8226 80.5 µM | SK-MEL-5 > 100 µM | DU-145 92.5 µM | MDA-MB-435 > 100 µM | SF-268 73.5 µM | MDA-N > 100 µM

Source: ChEMBL document CHEMBL1201862, “PubChem BioAssay data set” (2004)
